Results filed as inconclusive are left out. The source made the active and inactive calls. How the calls were made is not given here.
Target: Coagulation factor XI (Homo sapiens) (UniProt P03951)
Test: factor XIa inhibitor concentration-response – biochemical, hits from 1536-well screen, dose response (AID 846)
Settings: purified human plasma factor XIa, fluorogenic AMC substrate, 384-well, 2 h

Chain of Coagulation factor XI (Homo sapiens) (P03951 19-387 limits assumed): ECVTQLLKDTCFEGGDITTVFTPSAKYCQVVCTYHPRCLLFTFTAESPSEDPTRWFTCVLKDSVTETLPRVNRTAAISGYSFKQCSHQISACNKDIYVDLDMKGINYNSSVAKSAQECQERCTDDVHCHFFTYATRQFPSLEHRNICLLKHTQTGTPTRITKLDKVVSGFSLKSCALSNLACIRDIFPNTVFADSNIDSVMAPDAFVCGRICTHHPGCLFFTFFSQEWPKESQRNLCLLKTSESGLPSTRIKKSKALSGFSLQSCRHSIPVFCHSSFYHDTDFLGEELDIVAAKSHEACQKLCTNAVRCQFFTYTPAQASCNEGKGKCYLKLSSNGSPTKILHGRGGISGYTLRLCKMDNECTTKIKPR
Chain of Coagulation factor XI (Homo sapiens) (P03951 388-625 limits assumed): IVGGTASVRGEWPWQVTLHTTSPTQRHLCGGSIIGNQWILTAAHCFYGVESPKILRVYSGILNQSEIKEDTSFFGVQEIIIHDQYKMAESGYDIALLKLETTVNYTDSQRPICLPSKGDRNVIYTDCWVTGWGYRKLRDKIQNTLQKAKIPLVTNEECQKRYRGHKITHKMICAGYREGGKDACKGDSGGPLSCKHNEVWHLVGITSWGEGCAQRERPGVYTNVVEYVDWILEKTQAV

Structure (SMILES)	IC50
Oc1ccc(/C=N/Nc2nc(-c3cccnc3)nc3ccccc23)c(O)c1	> 50 µM (inactive)
Cc1cccc(NC(=O)c2cc(N3C(=O)CCC3=O)ccc2Cl)n1	> 50 µM (inactive)
COc1cc(/C=N/Nc2cc(C)nc(NS(=O)(=O)c3ccccc3)n2)ccc1O	> 50 µM (inactive)
C=CCOC(=O)C1=C(C)Nc2[nH]c(=O)[nH]c(=O)c2C1c1ccccc1 (stereo not drawn)	> 50 µM (inactive)
Brc1cccc(/C=N/Nc2nn[nH]n2)c1	> 50 µM (inactive)
O=C1CC(N2CCC(c3nc4ccccc4o3)CC2)C(=O)N1c1ccc(Cl)c(C(F)(F)F)c1 (stereo not drawn)	> 50 µM (inactive)
CCc1ccccc1N1C(=O)CC(=O)NC1=O	> 50 µM (inactive)
O=C1CC(Sc2ccc(Cl)cc2)C(=O)N1c1ccc2c(c1)OCCO2 (stereo not drawn)	> 50 µM (inactive)
